Data as given in patent US9962430B2, “Methods for treating pain associated with chronic pancreatitis” (priority 2012, dated 2018).

How the values were obtained:
[1] = test system: patients with type B pain from chronic pancreatitis; experiment: Phase II dose-escalation trial: 10 point visual analogue scale (VAS) pain assessment; assay type: in vivo, human; settings: for mean pain score (VAS): all patients, baseline mean VAS 5.79; for Pain (VAS 0-10), mean: 100 min post dose, baseline 6.04
[2] = test system: patients with type B pain from chronic pancreatitis; experiment: Phase II dose-escalation trial: quality of life by SF-36 score; assay type: in vivo, human; settings: for mean SF-36 score: baseline 101.3
[3] = test system: patients with type B pain from chronic pancreatitis; experiment: Phase II dose-escalation trial: daily opioid use converted to morphine equivalents; assay type: in vivo, human; settings: for daily opioid usage (oral morphine equivalents): baseline 136 mg
patients with CP = settings: cited from earlier work
[4] = 800 CU (160 mcg) twice daily for seven days, drug administration arm

Substance: sHS: ChiRhoStim (human secretin for injection) provided by ChiRhoClin Inc.; 27 amino acid gastrointestinal peptide hormone
- mean pain (VAS), female subgroup ([1]; day 30, females, baseline 5.42, p=0.07): 3.67
- optimal dosing based on the change in the VAS score ([1]; dose-escalation 0.05-0.8 mcg/kg IV bolus): 0.4 µg/kg
- mean pain score (VAS) ([1]; post-treatment day 4, p=0.25 vs baseline, IV bolus 3x/day for 3 days): 4.80
- mean pain score (VAS) ([1]; post-treatment day 10, p=0.19 vs baseline): 4.72
- mean pain score (VAS) ([1]; post-treatment day 30, p=0.27 vs baseline): 4.90
- Pain (VAS 0-10), mean ([1]; sHS dose 0.05 μg/kg): 4.92
- Pain (VAS 0-10), mean ([1]; sHS dose 0.1 μg/kg): 5.06
- Pain (VAS 0-10), mean ([1]; sHS dose 0.2 μg/kg): 4.92
- Pain (VAS 0-10), mean ([1]; sHS dose 0.4 μg/kg): 4.5
- Pain (VAS 0-10), mean ([1]; sHS dose 0.8 μg/kg): 5.36
- mean SF-36 score ([2]; day 4): 100.9
- mean SF-36 score ([2]; day 30): 101.5
- quality of life as measured by SF-36 with therapy ([2]; overall statement): unaltered
- daily opioid equivalent, females ([3]; Day 30, females, baseline 107 mg, p=0.53): 84 mg
- daily opioid usage (oral morphine equivalents) ([3]; day 4 post-therapy, p=0.52): 111 mg
- daily opioid usage (oral morphine equivalents) ([3]; day 30 post-therapy, p=0.34): 104 mg

Substance: depot secretin: subcutaneous depot secretin, 800 CU (160 mcg) twice daily, Tympner and Rosch 1986
- serum amylase levels (patients with CP; 800 CU (160 mcg) twice daily for seven days): strong trend towards decreased
- lactoferrin (patients with CP; [4]): decreased
- trypsin (patients with CP; [4]): decreased
- viscosity of pancreatic secretion (patients with CP; [4]): decreased
- pain levels at the end of the study (patients with CP; 800 CU (160 mcg) twice daily injection for seven days, p<0.05): significantly improved
